In paper PMC11649115, “In vitro safety evaluation of dopamine D3R antagonist, R-VK4-116, as a potential medication for the treatment of opioid use disorder” (PLOS ONE, 2024):
Read-outs that look alike come from different tables or passages of the source.

How the values were obtained:
hGABAA∞1β2γ2 = target: T1, hGABAA∞1β2γ2 (Homo sapiens, UniProt P14867+P18507+P47870); assay: IonFlux HT electrophysiological assay; assay type: cell-based; details: 10 μM
T1 construct: Eurofins Cerep (France) and Eurofins Discovery (St. Charles, MO)
Experimental: Electrophysiological assays were also conducted to profile R-VK4-116 for activities on ion channel targets. The QPatch HT (patch clamp) measured the agonist or antagonist activity of R-VK4-116 on ion channels. For these assays, the voltage was used as the ligand to activate the channel and induce a measurable current. The IonFlux HT measured the agonist, antagonist, or PAM activity of R-VK4-116 on ligand-gated ion channels. For these assays, GABA or Acetylcholine (ACh) was used as the ligand to activate the channel and induce measurable current. The six ion channels tested at 10 μM of R-VK4-116 in replicate were hNav1.5 Peak, hERG, hKCNQ1/minK, hCav1.2, hGABAA∞1/β2g2 and hnAChR∞4/β2.

[1] = Metabolic stability in liver microsomes; details: human, pH 7.4
CYP2D6 = CYP2D6 (Homo sapiens, UniProt P10635); assay: CYP inhibition in human liver microsomes; details: human liver microsomes
OAT3 = target: T2, OAT3 (Homo sapiens, UniProt Q8TCC7); assay: Transporter mediated assay (substrate/inhibitor), MDCK-II cells; assay type: in vitro ADME
T2 construct: expressed in transfected cells; host or cells: MDCK-II cells
T2 sequence (Q8TCC7 1-542): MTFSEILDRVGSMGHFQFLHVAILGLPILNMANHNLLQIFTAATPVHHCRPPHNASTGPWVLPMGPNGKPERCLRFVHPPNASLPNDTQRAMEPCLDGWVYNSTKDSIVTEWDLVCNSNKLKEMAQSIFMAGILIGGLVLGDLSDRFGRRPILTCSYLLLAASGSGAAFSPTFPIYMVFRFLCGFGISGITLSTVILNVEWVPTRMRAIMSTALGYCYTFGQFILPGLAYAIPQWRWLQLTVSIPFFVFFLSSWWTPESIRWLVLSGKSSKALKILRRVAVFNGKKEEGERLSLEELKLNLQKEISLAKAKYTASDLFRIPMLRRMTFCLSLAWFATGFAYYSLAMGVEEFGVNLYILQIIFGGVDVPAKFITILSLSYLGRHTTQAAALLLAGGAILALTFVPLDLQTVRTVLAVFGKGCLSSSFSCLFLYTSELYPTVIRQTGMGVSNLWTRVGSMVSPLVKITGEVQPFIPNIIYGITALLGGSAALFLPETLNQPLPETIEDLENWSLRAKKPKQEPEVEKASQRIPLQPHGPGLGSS
Experimental: The MDCK-II cells were treated to express the transporter of interest. The transport of each probe substrate was determined by radiometric detection (Fig 1 in S1 File). […] For the uptake assay, the net transporter-mediated uptake-rate (V) of the substrate by each SLC transporter was calculated as follows: Transporter–mediatedupdaterate(pmol/min/cm^2)=(Cellularaccumulationincellsexpressingthetransporter)−(Meancellularaccumulationincontrolcells)/Surfacearea×incubationtime
Fold of activity and percent inhibition were determined as follows: Foldofactivity=(Meanuptakerate)transporterexpressingcells/(Meanuptakerate)controlcells Percentinhibition=100−100×(Transport‐mediatedupdaterate)withinhibitor/(Transport‐mediatedupdaterate)vehiclecontrol

HepG2 cells = assay: Lysosomal trapping assay (Lyso-ID Red); assay type: cell-based; details: HepG2, 0.1, 1.0, and 10.0 μM, up to 72 hr
Experimental: After incubation timepoint, the treated cells were washed and incubated with fluorescent dual color detection reagent for 60 min. Subsequently, the fluorescence was measured with Spectramax ID5. An increase in red signal without significant loss (no more than 30%) of the blue signal indicates the accumulation of test article within the cells arising from an increase in lysosome or lysosome-like vesicles in size and/or number. The assay results were presented as fluorescence fold change for red stain and blue stain individually and were calculated as follows: Fluorescencefoldchange=RelativeFluorescenceUnit(RFU)measuredfortestarticleconcentration/RFUmeasuredforrespectivesolventcontrol
The acceptance criteria for significant lysosomal perturbation was a ≥ 2-fold increase in red fluorescence with no loss of blue fluorescence.

CHEK2 = target: T3, CHEK2 (Homo sapiens, UniProt O96017); assay: KINOMEscan binding (% Ctrl, Kd)
T3 construct: made in house; host or cells: E. coli BL21-derived host (T7 phage) or HEK-293
Experimental: Briefly, E. coli host derived from the BL21 strain were grown to log-phase and infected with kinase-tagged T7 phage and incubated with shaking at 32°C until lysis. The lysates were centrifuged and filtered to remove cell debris. The remaining kinases were produced in HEK-293 cells and subsequently tagged with DNA for qPCR detection. Streptavidin-coated magnetic beads were treated with biotinylated small molecule ligands to generate affinity resins for kinase assays. The liganded beads were blocked with excess biotin and washed to remove unbound ligand and to reduce non-specific phage binding. […] Selectivity Score (S-score) was a quantitative measure of compound selectivity. […] The binding constants (Kds) were also determined with a standard dose-response curve using the Hill equation and Levenberg-Marquardt algorithm [24, 25].

CYP2B6 = target: T4, CYP2B6 (Homo sapiens, UniProt P20813); assay: CYP inhibition in human liver microsomes; details: human liver microsomes
T4 sequence (P20813 1-491): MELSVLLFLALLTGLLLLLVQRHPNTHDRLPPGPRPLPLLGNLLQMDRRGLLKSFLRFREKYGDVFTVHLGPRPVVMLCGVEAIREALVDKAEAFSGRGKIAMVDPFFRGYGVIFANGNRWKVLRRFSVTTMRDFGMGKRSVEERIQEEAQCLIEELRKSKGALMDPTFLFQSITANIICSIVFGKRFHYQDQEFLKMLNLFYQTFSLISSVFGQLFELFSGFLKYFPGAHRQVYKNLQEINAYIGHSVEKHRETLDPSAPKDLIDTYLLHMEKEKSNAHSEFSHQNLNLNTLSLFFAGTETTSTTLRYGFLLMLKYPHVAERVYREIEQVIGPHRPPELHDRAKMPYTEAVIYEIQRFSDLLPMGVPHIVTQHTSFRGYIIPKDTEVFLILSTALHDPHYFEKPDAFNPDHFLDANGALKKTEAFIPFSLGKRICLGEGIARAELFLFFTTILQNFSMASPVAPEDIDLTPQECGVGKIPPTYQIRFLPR

CYP3A4 mRNA = assay: CYP induction, mRNA, primary cultured human hepatocytes; assay type: in vitro ADME; details: for fold induction at 48 h, 0.01 µM / fold induction at 48 h, 0.1 µM / fold induction at 48 h, 1 µM / fold induction at 48 h, 3 µM / fold induction at 48 h, 5 µM / fold induction at 48 h, 10 µM: human, primary cultured human hepatocytes, read-out: CYP3A4 mRNA Fold Induction (fold of vehicle control)
[2] = heat-inactivated liver microsomes

CYP2D6, sequence (P10635 whole entry): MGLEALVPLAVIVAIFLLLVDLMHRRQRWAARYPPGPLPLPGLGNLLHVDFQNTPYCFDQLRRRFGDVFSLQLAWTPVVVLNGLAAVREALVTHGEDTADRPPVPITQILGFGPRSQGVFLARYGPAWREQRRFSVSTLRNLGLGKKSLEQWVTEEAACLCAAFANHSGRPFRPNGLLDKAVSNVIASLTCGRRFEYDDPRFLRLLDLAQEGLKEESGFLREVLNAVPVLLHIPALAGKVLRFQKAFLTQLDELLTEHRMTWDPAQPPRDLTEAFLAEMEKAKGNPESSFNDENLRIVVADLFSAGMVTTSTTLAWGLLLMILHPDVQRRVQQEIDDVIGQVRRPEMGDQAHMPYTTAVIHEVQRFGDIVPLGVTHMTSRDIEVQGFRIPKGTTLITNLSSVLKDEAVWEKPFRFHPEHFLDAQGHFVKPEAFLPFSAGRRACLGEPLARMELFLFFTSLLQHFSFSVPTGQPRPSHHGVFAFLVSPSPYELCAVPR
T3 sequence (O96017 whole entry): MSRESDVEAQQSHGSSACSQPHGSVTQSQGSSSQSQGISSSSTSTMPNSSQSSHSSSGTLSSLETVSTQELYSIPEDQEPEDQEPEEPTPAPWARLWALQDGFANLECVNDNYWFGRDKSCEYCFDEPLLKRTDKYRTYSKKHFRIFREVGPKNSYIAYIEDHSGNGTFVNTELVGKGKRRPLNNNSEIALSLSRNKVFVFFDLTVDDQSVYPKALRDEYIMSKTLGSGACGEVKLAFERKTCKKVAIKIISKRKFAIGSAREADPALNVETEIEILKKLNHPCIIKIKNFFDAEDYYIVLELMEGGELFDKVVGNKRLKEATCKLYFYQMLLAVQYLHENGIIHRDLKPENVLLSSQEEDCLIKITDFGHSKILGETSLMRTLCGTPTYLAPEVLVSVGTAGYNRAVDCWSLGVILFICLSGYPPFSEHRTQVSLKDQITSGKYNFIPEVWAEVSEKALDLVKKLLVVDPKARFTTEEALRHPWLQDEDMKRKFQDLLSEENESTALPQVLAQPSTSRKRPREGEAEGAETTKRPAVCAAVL
T1 sequence (P14867 28-456): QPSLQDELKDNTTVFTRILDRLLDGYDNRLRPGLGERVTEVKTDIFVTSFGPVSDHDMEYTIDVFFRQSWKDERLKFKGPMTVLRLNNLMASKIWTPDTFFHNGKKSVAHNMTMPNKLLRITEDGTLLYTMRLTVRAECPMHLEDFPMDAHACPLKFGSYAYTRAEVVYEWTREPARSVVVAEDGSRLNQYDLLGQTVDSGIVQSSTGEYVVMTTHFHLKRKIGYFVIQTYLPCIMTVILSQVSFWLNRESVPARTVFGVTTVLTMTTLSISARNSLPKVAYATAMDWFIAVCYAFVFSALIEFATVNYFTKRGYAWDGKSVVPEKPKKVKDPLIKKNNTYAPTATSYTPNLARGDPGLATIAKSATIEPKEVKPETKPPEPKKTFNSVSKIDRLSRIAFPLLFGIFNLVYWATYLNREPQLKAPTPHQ
T1 sequence (P47870 25-512 limits assumed): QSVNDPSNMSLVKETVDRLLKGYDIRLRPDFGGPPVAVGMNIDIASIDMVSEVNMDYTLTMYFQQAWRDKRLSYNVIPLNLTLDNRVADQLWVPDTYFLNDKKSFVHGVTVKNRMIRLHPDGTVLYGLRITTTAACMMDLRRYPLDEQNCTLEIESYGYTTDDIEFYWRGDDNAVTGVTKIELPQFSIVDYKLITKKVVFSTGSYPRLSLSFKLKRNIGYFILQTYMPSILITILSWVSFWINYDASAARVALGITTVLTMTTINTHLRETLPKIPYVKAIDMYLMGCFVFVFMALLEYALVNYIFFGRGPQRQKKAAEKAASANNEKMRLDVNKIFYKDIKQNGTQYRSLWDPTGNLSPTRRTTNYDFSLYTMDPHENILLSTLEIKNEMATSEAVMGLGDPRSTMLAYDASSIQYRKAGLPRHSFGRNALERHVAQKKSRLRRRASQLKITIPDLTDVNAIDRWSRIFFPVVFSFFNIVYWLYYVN
T1 sequence (P18507 40-475): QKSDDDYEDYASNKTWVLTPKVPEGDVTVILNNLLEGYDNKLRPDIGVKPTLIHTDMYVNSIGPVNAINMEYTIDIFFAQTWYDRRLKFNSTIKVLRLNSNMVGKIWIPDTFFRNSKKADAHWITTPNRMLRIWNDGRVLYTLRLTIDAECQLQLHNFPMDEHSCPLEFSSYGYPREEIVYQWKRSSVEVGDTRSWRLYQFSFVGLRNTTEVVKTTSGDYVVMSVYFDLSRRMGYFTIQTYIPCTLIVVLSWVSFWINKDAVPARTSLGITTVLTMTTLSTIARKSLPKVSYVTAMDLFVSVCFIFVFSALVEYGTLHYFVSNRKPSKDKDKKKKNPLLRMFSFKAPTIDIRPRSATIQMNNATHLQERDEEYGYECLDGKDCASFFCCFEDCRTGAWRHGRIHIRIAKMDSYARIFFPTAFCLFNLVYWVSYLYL

## CCc1cc(Cl)c(OC)c(N2CCN(CC(O)CCNC(=O)c3cc4ccccc4[nH]3)CC2)c1 (centres unmarked) [R-VK4-116, N-(4-(4-(3-chloro-5-ethyl-2-methoxyphenyl)piperazin-1-yl)-3-hydroxybutyl)-1H-indole-2-carboxamide]
hGABAA∞1β2γ2
  agonist effect: 97.71%
[1]; [2]
  remaining at 0 h, 1 μM: 100%
  remaining at 0 h, 10 μM: 100%
  remaining at 2 h, 1 μM: 96.7%
  remaining at 2 h, 10 μM: 95.1%
[1]; liver microsomes
  remaining at 0 h, 1 μM: 100%
  remaining at 0 h, 10 μM: 100%
  remaining at 0.5 h, 1 μM: 41.1%
  remaining at 0.5 h, 10 μM: 69.7%
  remaining at 1 h, 1 μM: 25.9%
  remaining at 1 h, 10 μM: 60.1%
  remaining at 1.5 h, 1 μM: 22.3%
  remaining at 1.5 h, 10 μM: 55.5%
  remaining at 2 h, 1 μM: 16.4%
  remaining at 2 h, 10 μM: 48.9%
CYP2D6; up to 100 μM
  CYP2D6 inhibition: did not inhibit CYP significantly
CYP2D6; human, probe bufuralol
  activity at 20 min, 0.1 µM: 92.6 ± 9%
  activity at 20 min, 0.3 µM: 86.1 ± 4%
  activity at 20 min, 1 µM: 84.3 ± 3.7%
  activity at 20 min, 3 µM: 92.1 ± 6.8%
  activity at 20 min, 10 µM: 94.7 ± 6.5%
  activity at 20 min, 30 µM: 83.1 ± 1.6%
  activity at 20 min, 60 µM: 84.5 ± 1.8%
  activity at 20 min, 100 µM: 95 ± 7.5%
OAT3; OAT3, 1 μM, transporter cells vs control cells
  fold difference in mean uptake rate (substrate test): < 2 fold
OAT3; OAT3, 0.1% BSA, 10 μM
  Inhibition (%): no statistically significant inhibition
OAT3; human, polarized monolayer of MDCK-II cells expressing OAT3, OAT3, 0.1% BSA, 10 μM
  inhibition at 10 µM: -5.73 ± 8.06%
HepG2 cells
  red lysosomal stain signal / blue nuclear stain signal over solvent control: No significant increase in red lysosomal stain signal or decrease in blue nuclear stain signal
CHEK2; 11-point curve 0.001 to 10 μM, read-out: binding constant (Kd)
  Kd: > 10 µM
CHEK2; read-out: %Control
  remaining binding at 1 µM: < 35%
CHEK2; read-out: Gene (S-score with % control): CHEK2
  remaining binding at 1 µM: 19%
CYP2B6; up to 100 μM
  CYP2B6 inhibition: did not inhibit CYP significantly
CYP2B6; human, probe bupropion
  activity at 20 min, 0.1 µM: 99.6 ± 7.5%
  activity at 20 min, 0.3 µM: 90.9 ± 2.5%
  activity at 20 min, 1 µM: 91.2 ± 1.4%
  activity at 20 min, 3 µM: 99.8 ± 7.6%
  activity at 20 min, 10 µM: 97.5 ± 6.6%
  activity at 20 min, 30 µM: 89.3 ± 1.2%
  activity at 20 min, 60 µM: 91 ± 0.7%
  activity at 20 min, 100 µM: 97 ± 4.9%
CYP3A4 mRNA; 5 μM, two days, average of hepatocyte lots
  induction in CYP3A4 mRNA, average: 2.9 fold
CYP3A4 mRNA; Lot 336, 0.01 μM
  fold induction at 48 h, 0.01 µM: 1.1 ± 0.079
CYP3A4 mRNA; Lot 336, 0.1 μM
  fold induction at 48 h, 0.1 µM: 1.1 ± 0.18
CYP3A4 mRNA; Lot 336, 1 μM
  fold induction at 48 h, 1 µM: 2.3 ± 0.15
CYP3A4 mRNA; Lot 336, 3 μM
  fold induction at 48 h, 3 µM: 3.7 ± 0.56
CYP3A4 mRNA; Lot 336, 5 μM
  fold induction at 48 h, 5 µM: 4 ± 0.78
CYP3A4 mRNA; Lot 336, 10 μM
  fold induction at 48 h, 10 µM: 3.7 ± 0.2
CYP3A4 mRNA; Lot 348B, 0.01 μM
  fold induction at 48 h, 0.01 µM: 1.1 ± 0.05
CYP3A4 mRNA; Lot 348B, 0.1 μM
  fold induction at 48 h, 0.1 µM: 1.2 ± 0.081
CYP3A4 mRNA; Lot 348B, 1 μM
  fold induction at 48 h, 1 µM: 1.3 ± 0.12
CYP3A4 mRNA; Lot 348B, 3 μM
  fold induction at 48 h, 3 µM: 1.8 ± 0.17
CYP3A4 mRNA; Lot 348B, 5 μM
  fold induction at 48 h, 5 µM: 2 ± 0.27
CYP3A4 mRNA; Lot 348B, 10 μM
  fold induction at 48 h, 10 µM: 1.9 ± 0.13
CYP3A4 mRNA; Lot 399, 0.01 μM
  fold induction at 48 h, 0.01 µM: 1.2 ± 0.2
CYP3A4 mRNA; Lot 399, 0.1 μM
  fold induction at 48 h, 0.1 µM: 1.2 ± 0.11
CYP3A4 mRNA; Lot 399, 1 μM
  fold induction at 48 h, 1 µM: 1.8 ± 0.12
CYP3A4 mRNA; Lot 399, 3 μM
  fold induction at 48 h, 3 µM: 2.6 ± 0.14
CYP3A4 mRNA; Lot 399, 5 μM
  fold induction at 48 h, 5 µM: 2.7 ± 0.4
CYP3A4 mRNA; Lot 399, 10 μM
  fold induction at 48 h, 10 µM: 2.3 ± 0.39
